Data: ChEMBL document CHEMBL3217496, “Inhibitors of Stat5 protein signalling” (Medchemcomm, 2012)
Values belong to the compound of their own block, whether it stands above or below them.

What was measured:
[1] = target: T1, Signal transducer and activator of transcription 5A (Homo sapiens, UniProt P42229); assay: Inhibition of STAT5 (unknown origin)
T1 sequence (P42229 whole entry): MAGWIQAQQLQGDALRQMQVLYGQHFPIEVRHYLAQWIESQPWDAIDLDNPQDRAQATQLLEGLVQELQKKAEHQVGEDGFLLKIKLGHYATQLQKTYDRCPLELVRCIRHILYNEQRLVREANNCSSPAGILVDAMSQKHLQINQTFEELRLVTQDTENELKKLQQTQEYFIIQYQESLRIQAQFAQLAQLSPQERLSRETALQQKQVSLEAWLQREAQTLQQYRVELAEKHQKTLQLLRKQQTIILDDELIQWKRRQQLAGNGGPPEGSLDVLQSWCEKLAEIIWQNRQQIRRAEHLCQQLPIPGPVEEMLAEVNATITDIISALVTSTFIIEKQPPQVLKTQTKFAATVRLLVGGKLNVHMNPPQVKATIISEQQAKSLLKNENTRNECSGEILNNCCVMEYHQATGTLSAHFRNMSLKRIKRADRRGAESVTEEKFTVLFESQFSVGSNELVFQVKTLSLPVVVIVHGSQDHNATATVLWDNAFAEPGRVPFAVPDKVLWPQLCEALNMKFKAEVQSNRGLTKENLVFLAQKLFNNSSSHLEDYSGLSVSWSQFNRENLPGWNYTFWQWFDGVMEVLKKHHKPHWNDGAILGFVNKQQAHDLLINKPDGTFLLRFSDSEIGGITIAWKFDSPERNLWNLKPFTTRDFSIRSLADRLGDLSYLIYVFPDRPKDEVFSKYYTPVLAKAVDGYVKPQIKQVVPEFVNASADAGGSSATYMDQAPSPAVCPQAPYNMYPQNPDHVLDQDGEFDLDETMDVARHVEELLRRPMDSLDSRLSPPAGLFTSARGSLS

[2] = target: Signal transducer and activator of transcription 3 (Homo sapiens, UniProt P40763); assay: Inhibition of STAT3 (unknown origin)
Signal transducer and activator of transcription 3, sequence (P40763 whole entry): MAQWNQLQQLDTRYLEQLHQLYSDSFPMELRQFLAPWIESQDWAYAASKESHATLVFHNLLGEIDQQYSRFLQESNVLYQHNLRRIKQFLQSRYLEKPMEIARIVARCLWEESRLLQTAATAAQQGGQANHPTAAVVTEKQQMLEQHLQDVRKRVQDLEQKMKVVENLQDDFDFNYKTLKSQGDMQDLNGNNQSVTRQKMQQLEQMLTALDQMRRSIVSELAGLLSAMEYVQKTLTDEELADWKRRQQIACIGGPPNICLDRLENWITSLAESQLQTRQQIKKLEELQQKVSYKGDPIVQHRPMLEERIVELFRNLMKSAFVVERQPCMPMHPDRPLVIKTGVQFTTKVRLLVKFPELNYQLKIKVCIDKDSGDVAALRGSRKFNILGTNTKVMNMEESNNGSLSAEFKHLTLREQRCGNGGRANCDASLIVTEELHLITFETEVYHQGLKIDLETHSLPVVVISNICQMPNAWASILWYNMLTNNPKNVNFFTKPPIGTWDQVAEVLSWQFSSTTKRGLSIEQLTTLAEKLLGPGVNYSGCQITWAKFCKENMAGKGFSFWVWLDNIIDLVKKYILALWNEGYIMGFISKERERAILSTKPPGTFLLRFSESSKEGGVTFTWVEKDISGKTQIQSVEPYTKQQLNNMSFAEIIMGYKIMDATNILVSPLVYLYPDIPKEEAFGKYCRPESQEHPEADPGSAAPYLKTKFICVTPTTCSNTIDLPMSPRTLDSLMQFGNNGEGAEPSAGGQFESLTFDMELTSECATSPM

[3] = target: T2, Signal transducer and activator of transcription 1-alpha/beta (Homo sapiens, UniProt P42224); assay: Inhibition of STAT1 (unknown origin)
T2 sequence (P42224 whole entry): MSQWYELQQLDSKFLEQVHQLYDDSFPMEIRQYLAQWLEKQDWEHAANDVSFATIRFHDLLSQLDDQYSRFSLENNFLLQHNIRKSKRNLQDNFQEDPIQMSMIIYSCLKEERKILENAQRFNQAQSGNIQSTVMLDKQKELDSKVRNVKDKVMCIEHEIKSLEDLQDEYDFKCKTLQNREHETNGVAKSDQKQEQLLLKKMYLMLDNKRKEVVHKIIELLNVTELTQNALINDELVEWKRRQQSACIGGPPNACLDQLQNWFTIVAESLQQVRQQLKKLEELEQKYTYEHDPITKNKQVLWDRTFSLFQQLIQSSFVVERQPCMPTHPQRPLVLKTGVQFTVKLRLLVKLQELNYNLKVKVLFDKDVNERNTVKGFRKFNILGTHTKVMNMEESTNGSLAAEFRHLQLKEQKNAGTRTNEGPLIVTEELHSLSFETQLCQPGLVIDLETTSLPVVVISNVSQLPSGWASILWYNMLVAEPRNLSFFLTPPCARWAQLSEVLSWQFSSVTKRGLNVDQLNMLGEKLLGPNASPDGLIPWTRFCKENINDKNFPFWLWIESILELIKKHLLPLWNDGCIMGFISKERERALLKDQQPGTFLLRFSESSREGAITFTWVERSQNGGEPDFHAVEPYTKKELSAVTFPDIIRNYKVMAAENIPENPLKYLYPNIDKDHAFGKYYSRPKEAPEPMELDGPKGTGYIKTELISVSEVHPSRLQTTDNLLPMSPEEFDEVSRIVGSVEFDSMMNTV

[4] = target: T1, Signal transducer and activator of transcription 5A; assay: Inhibition of STAT5 DNA binding activity in human K562 cells after 24 hrs by electrophoretic mobility shift assay; assay type: cell-based
[5] = target: Tyrosine-protein kinase JAK2 (Mus musculus, UniProt Q62120, V617F); assay: Inhibition of JAK2 V617F mutant in mouse BAF3 cells; assay type: cell-based
Tyrosine-protein kinase JAK2, sequence (Q62120 as listed by the source V617F): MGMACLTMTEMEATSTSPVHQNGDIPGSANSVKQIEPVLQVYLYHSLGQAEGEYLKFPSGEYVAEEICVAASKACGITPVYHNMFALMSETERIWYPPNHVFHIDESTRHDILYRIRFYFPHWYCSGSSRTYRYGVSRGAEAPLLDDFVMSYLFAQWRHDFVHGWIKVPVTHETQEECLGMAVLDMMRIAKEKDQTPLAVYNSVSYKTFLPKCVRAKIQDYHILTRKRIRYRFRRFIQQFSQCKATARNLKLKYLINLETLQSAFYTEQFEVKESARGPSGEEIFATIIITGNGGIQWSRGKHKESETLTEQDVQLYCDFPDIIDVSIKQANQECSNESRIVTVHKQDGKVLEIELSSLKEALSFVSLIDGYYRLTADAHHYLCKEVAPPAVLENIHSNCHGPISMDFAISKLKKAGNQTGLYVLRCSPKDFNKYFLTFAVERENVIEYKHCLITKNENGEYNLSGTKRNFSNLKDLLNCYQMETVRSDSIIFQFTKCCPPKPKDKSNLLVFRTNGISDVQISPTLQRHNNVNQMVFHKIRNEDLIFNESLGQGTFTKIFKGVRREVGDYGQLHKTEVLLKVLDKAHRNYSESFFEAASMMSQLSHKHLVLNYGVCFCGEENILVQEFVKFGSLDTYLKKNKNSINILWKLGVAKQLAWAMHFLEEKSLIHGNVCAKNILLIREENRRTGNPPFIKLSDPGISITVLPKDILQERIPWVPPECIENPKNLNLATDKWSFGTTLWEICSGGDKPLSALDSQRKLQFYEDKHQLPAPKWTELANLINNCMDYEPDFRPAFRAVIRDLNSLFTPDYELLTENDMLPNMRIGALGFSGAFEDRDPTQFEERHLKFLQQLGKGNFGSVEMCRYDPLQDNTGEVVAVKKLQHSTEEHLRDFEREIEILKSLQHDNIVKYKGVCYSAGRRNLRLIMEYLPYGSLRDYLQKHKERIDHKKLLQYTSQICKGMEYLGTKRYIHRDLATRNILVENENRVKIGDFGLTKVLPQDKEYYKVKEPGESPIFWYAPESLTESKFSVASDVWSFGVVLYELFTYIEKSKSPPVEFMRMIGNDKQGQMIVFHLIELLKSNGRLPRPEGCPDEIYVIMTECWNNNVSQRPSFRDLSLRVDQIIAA

BaF3 = assay: Cytotoxicity against mouse BAF3 cells expressing JAK2 V617F mutant after 48 hrs by CellTiterGlo assay; assay type: functional, cell-based; conditions: BaF3, 48 h
cells = conditions: Homo sapiens, EOL1
Description: Antiproliferative activity against human EOL-1 cells by CellTiterGlo assay

IC50 [1]: 47 µM
IC50 [2]: 180 µM
IC50 [3]: 130 µM
SMILES: O=C(N/N=C/c1coc2ccccc2c1=O)c1cccnc1

IC50 [4]: 0.005 µM
SMILES: Cc1cc(Nc2ncc3cc(-c4c(Cl)cccc4Cl)c(=O)n(C)c3n2)ccc1F

IC50 [5]: 1.5 µM
SMILES: N#CCNC(=O)c1ccc(-c2ccnc(Nc3ccc(N4CCOCC4)cc3)n2)cc1 [MOMELOTINIB]

SMILES: N#CC[C@H](C1CCCC1)n1cc(-c2ncnc3[nH]ccc23)cn1 [RUXOLITINIB]
IC50 (BaF3): 0.126 µM

IC50 (cells): 0.0023 µM
SMILES: CNC(=O)c1cc(Oc2ccc(NC(=O)Nc3ccc(Cl)c(C(F)(F)F)c3)cc2)ccn1 [SORAFENIB]
